As a reminder, the Ki is a measure of affinity in units of concentration, obtained from inhibition or displacement. Broadly, the IC50 is the concentration that inhibits the measured activity by half.

SMILES strings stand for the structures.

The text below walks through data of patent US20230293517A1, “ANTAGONIST COMPOUNDS” (AdoRx Therapeutics Limited, priority 2020, published 2023).

In test [1] the target is human Adenosine A1 receptor (Homo sapiens (Human), UniProt P30542). Description: Adenosine receptor TR-FRET binding assay (A1). The settings on record: inhibition of binding of 100 nM CA200645, CHO cell membranes. A digest of the protocol:
(§1)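 Compounds were serially diluted 1:3 in DMSO, then incubated with CHO membranes bearing Tb-tagged human receptor plus CA200645 (A2b 30 nM; A1, A2a, A3 100 nM) for 2 h at room temperature. Time-resolved FRET was read, non-specific binding subtracted using 10 μM XAC, and Ki calculated.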
(In general: In TR-FRET formats the signal depends on donor and acceptor labels being close together.)

In test [2] the target is human Adenosine A2a receptor (Homo sapiens (Human), UniProt P29274). Nature of the test: Adenosine receptor TR-FRET binding assay (A2a). The following applies: inhibition of binding of 100 nM CA200645, CHO cell membranes. The essentials:
as §1

The target of test [3] is human Adenosine A2b receptor (Homo sapiens (Human), UniProt P29275). Description: Adenosine receptor TR-FRET binding assay (A2b). The following applies: TR-FRET, inhibition of binding of 30 nM CA200645, CHO cell membranes. A digest of the protocol: as §1
Test [4] concerns the target human Adenosine A3 receptor (Homo sapiens (Human), UniProt P0DMS8). Description: Adenosine receptor TR-FRET binding assay (A3). The following applies: inhibition of binding of 100 nM CA200645, CHO cell membranes. The essentials:
as §1

For the next test, the system named is human PBMCs. Nature of the test: CD3/CD28 stimulated IL-2 release NECA reversal assay in human PBMCs. It is filed as cell-based. The settings on record: PBMC, 1 uM NECA, 24 hours, IL-2 in culture supernatant. As to the method:
Biological Example—CD3/CD28 Stimulated IL-2 Release NECA Reversal Assay in Human PBMCs
Blood is drawn from healthy volunteers using sodium citrate as the anticoagulant (0.3% final concentration). After centrifugation of the blood over Histopaque-1077, PBMCs are collected from the Histopaque/plasma interface and washed twice in PBS (300 g for 10 mins at room temp). Cells are plated at 50,000 cells/well in 150 μl RPMI/10% FCS in 96-well cell culture plates that have been precoated with 1 ug/ml CD3 antibody. 50 μl diluted compound mix is added to the cells, to obtain final concentrations of 1 ug/ml CD28 antibody, 1 uM NECA and 0.003-10 μM adenosine receptor antagonist. Assay plates are incubated for 24 hours at 37° C. in a humidified incubator. Culture supernatant is tested for IL-2 levels using the human IL-2 Tissue Culture Kit (Meso Scale Discovery). Data for dose-response curves is calculated as % inhibition with 100% inhibition defined from no agonist control wells (+CD3/28-NECA)

Test [5] has as its system CD8+T cells in human whole blood. Nature of the test: Measurement of pCREB in CD8+T cells in human whole blood. Format: cell-based. The settings on record: 3 μM NECA, rolipram. A digest of the protocol:
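Heparinised human whole blood pre-incubated 20 min at 37 °C with serially diluted A2a antagonists plus rolipram, then stimulated 60 min with 3 μM NECA (final). After fixation and red-cell lysis, white cells were permeabilized and stained for phospho-CREB and CD8; pCREB in CD8+ T cells measured by flow cytometry.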

Sequence of human Adenosine A2a receptor (P29274 whole entry): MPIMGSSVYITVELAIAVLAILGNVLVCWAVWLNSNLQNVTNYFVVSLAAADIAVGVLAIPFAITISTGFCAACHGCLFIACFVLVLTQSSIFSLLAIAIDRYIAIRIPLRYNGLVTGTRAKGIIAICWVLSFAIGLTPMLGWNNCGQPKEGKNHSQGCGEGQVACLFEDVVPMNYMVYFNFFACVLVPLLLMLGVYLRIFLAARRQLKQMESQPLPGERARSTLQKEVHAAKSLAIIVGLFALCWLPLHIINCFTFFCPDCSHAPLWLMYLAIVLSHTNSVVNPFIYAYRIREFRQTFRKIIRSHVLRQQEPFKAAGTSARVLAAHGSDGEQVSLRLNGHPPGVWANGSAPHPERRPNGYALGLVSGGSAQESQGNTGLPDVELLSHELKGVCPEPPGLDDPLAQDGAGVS
Sequence of human Adenosine A2b receptor (P29275 whole entry): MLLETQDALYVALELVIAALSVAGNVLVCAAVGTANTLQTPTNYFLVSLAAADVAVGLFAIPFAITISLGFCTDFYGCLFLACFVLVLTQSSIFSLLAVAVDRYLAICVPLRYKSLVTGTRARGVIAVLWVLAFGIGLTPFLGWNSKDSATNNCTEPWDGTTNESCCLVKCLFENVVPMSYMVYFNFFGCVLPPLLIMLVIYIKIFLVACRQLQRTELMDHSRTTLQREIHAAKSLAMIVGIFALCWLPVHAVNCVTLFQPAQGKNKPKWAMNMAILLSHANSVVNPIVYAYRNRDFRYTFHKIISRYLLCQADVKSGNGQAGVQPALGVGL
Sequence of human Adenosine A1 receptor (P30542 whole entry): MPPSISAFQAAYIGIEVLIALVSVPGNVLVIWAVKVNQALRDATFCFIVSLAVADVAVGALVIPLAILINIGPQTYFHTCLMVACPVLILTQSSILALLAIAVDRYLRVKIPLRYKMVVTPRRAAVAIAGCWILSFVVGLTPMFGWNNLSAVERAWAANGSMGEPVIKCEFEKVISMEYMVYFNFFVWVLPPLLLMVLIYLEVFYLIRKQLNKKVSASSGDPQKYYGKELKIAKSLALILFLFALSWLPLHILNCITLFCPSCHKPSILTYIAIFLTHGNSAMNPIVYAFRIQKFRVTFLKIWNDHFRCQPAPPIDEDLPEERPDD
Sequence of human Adenosine A3 receptor (P0DMS8 whole entry): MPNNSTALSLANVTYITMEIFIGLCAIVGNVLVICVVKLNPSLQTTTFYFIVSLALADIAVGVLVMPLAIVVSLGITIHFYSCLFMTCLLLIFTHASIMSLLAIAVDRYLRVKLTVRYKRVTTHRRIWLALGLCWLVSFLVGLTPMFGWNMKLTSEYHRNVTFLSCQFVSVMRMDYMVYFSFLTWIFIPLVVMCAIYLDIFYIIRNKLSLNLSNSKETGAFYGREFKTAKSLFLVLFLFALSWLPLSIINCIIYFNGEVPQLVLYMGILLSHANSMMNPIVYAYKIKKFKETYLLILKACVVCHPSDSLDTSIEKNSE

On to `Cc1cc(-c2sc(NC(=O)N3CC(C#N)C3)nc2-c2cccc(C#N)c2)cc(C)n1` [Example 4.26, 3-Cyano-N-[4-(3-cyanophenyl)-5-(2,6-dimethyl-4-pyridyl)thiazol-2-yl]azetidine-1-carboxamide], for which the Ki in test [1] was found to be 4 nM; in test [2], 0.05 nM; in test [3], 0.4 nM; in test [4], 130 nM. Besides, the values for the IC50 (in the test on human PBMCs; in test [5]) were 0.4 nM and 20 nM, respectively.

`Cc1cc(-c2sc(NC(=O)N3C[C@@H]4C[C@H]3CN4)nc2-c2cccc(C#N)c2)cc(Cl)n1` [Example 5.6, (1S,4S)-N-[5-(2-Chloro-6-methyl-4-pyridyl)-4-(3-cyanophenyl)thiazol-2-yl]-2,5-diazabicyclo[2.2.1]heptane-2-carboxamide]: the Ki in test [1] is 22 nM; in test [2], 2.13 nM; in test [3], 4.2 nM; in test [4] it was 31 nM. Besides, the values for the IC50 (in the test on human PBMCs; in test [5]) were 30.5 nM and 720 nM, respectively.

`Cc1cc(-c2sc(NC(=O)N3CCN[C@H](C(N)=O)C3)nc2-c2cccc(C#N)c2)cc(Cl)n1` [Example 5.8, (3S)-N1-[5-(2-Chloro-6-methyl-4-pyridyl)-4-(3-cyanophenyl)thiazol-2-yl]piperazine-1,3-dicarboxamide]: the inhibition constant (Ki) in test [1] came out at 34 nM; in test [2] it was 0.68 nM; in test [3], 1.8 nM; in test [4], 474 nM. Moreover, the IC50 in the test with human PBMCs is 18.4 nM; in test [5], 980 nM.

Regarding `Cc1cc(-c2sc(NC(=O)N3CCC(C)(C#N)CC3)nc2-c2cccc(C#N)c2C)cc(C)n1` [Example 18, 4-Cyano-N-[4-(3-cyano-2-methyl-phenyl)-5-(2,6-dimethyl-4-pyridyl)thiazol-2-yl]-4-methyl-piperidine-1-carboxamide], the inhibition constant Ki in test [1] was 248 nM; in test [2], 0.39 nM; in test [3], 3.4 nM; in test [4] it was 852 nM. Moreover, the IC50 turned out to be 7.2 nM with human PBMCs and 410 nM in test [5].

Turning to `Cc1cc(-c2sc(NC(=O)N3CCC(F)(C#N)CC3)nc2-c2cccc(C#N)c2)cc(C)n1` [Example 4.7, 4-Cyano-N-[4-(3-cyanophenyl)-5-(2,6-dimethyl-4-pyridyl)thiazol-2-yl]-4-fluoro-piperidine-1-carboxamide], the Ki in test [1] was 6 nM; in test [2], 0.05 nM; in test [3], 1.3 nM; in test [4] it was 125 nM. Besides, the IC50 with human PBMCs turned out to be 0.8 nM; in test [5], 90 nM.

Consider `Cc1cc(-c2sc(NC(=O)N3CCN4CCS(=O)(=O)CC4C3)nc2-c2cccc(C#N)c2)cc(C)n1` (stereo not drawn) [Example 6.14, N-[4-(3-Cyanophenyl)-5-(2,6-dimethyl-4-pyridyl)thiazol-2-yl]-2,2-dioxo-3,4,6,7,9,9a-hexahydro-1H-pyrazino[2,1-c][1,4]thiazine-8-carboxamide], for which the inhibitory constant (Ki) in test [1] turned out to be 167 nM; in test [2] it was 0.6 nM; in test [3], 2.6 nM; in test [4] it was 772 nM. Moreover, the half-inhibitory concentration (IC50) turned out to be 5.3 nM in the test on human PBMCs and 50 nM in test [5].

In the case of `Cc1cc(-c2sc(NC(=O)N3CCC(C(N)=O)CC3)nc2-c2cccc(C#N)c2)cc(C)n1` [Example 4.29, N1-[4-(3-Cyanophenyl)-5-(2,6-dimethyl-4-pyridyl)thiazol-2-yl]piperidine-1,4-dicarboxamide], the inhibition constant Ki in test [1] was determined as 24 nM; in test [2], 0.13 nM; in test [3], 1.3 nM; in test [4] it was 112 nM. In addition, the IC50 was 2.1 nM in the test on human PBMCs and 50 nM in test [5].

For `Cc1cc(-c2sc(NC(=O)N3CCS(=O)(=NC#N)CC3)nc2-c2cccc(C#N)c2)cc(C)n1` [Example 11, 1-Cyanoimino-N-[4-(3-cyanophenyl)-5-(2,6-dimethyl-4-pyridyl)thiazol-2-yl]-1-oxo-1,4-thiazinane-4-carboxamide], the Ki in test [1] was found to be 51 nM; in test [2], 0.62 nM; in test [3], 1.3 nM; in test [4], 515 nM. Also, the concentration for half-maximal inhibition (IC50) in the test on human PBMCs came out at 10.5 nM; in test [5], 1130 nM.

Take `Cc1cc(-c2sc(NC(=O)N3CCN(C4COC4)CC3)nc2-c2cccc(C#N)c2)cc(C(F)(F)F)n1` [Example 6.61, N-[4-(3-Cyanophenyl)-5-[2-methyl-6-(trifluoromethyl)-4-pyridyl]thiazol-2-yl]-4-(oxetan-3-yl)piperazine-1-carboxamide]: the Ki came out at 112 nM in test [1], 1.52 nM in test [2], 3.2 nM in test [3] and 57 nM in test [4]. The IC50 in the test with human PBMCs turned out to be 17.2 nM; in test [5], 350 nM.

For `Cc1cc(-c2sc(NC(=O)N3CCN4CCOCC4C3)nc2-c2cccc(C#N)c2)cc(C)n1` (stereo not drawn) [Example 4.11, N-[4-(3-Cyanophenyl)-5-(2,6-dimethyl-4-pyridyl)thiazol-2-yl]-3,4,6,7,9,9a-hexahydro-1H-pyrazino[2,1-c][1,4]oxazine-8-carboxamide], the Ki in test [1] was found to be 225 nM; in test [2], 1.3 nM; in test [3], 4.7 nM; in test [4], 482 nM. Moreover, the IC50 with human PBMCs was found to be 3.8 nM; in test [5], 220 nM.

Turning to `Cc1cc(-c2sc(NC(=O)N3CCN4C(=O)OCCC4C3)nc2-c2cccc(C#N)c2)cc(C)n1` (stereo not drawn) [Example 6.17, N-[4-(3-Cyanophenyl)-5-(2,6-dimethyl-4-pyridyl)thiazol-2-yl]-6-oxo-1,3,4,8,9,9a-hexahydropyrazino[1,2-c][1,3]oxazine-2-carboxamide], the Ki stood at 35 nM in test [1], 0.46 nM in test [2], 6.5 nM in test [3] and 405 nM in test [4]. The IC50 in the test with human PBMCs came to 5.3 nM; in test [5], 70 nM.

Consider `Cc1cc(-c2sc(NC(=O)N3CCOC[C@H]3CO)nc2-c2cccc(C#N)c2)cc(C)n1` [Example 6.88, (3R)-N-[4-(3-Cyanophenyl)-5-(2,6-dimethyl-4-pyridyl)thiazol-2-yl]-3-(hydroxymethyl)morpholine-4-carboxamide], for which the Ki in test [1] amounted to 65 nM; in test [2], 1.9 nM; in test [3] it was 8 nM; in test [4] it was 385 nM. Also, the IC50 in the test with human PBMCs is 7.8 nM; in test [5], 480 nM.

Take `COC1(C#N)CCN(C(=O)Nc2nc(-c3cccc(C#N)c3)c(-c3cc(C)nc(CO)c3)s2)CC1` [Example 9.9]: the Ki in test [1] was found to be 48 nM; in test [2] it was 0.31 nM; in test [3], 3.1 nM; in test [4], 491 nM. In addition, the IC50 with human PBMCs was 1.3 nM; in test [5] it was 20 nM.

As for `Cc1cc(-c2sc(NC(=O)N3CCC4(CCNC(=O)C4)CC3)nc2-c2cccc(C#N)c2)cc(C)n1` [Example 6.26, N-[4-(3-Cyanophenyl)-5-(2,6-dimethyl-4-pyridyl)thiazol-2-yl]-10-oxo-3,9-diazaspiro[5.5]undecane-3-carboxamide], the inhibitory constant (Ki) in test [1] was found to be 86 nM; in test [2], 0.79 nM; in test [3], 3.8 nM; in test [4], 302 nM. Besides, the IC50 in the test with human PBMCs stood at 3.2 nM; in test [5], 80 nM.
